Assay results: US9198942B1, “Method of preparing bioactive compound from solid-state cultivated Antrodia cinnamomea mycelium for anti-metastasis against lung cancer cells” (TAIWAN LEADER BIOTECH CORP., priority 2014, dated 2015)

Experiments:
Assay type in all cases: cell-based, human
[1] = system: A549 lung cancer cells; test: Matrigel transwell invasion of A549 cells; details: A549, 5-40 μM for 24 hr, 12 or 24 hr, especially 40 μM
Protocol: The 24-well kit is used for analyzing lung cancer cell invasion. The kit is prepared by injecting Matrigel (3 mg/ml-well, BD science) into the upper layer of the kit, to be placed in an incubator for 24 hr and, then, process solidification.
At first, lung cancer cells A549 are cultured as described in state-of-use 1. After being washed down with tripsin, the cells are replanted in a 6-well plate at a seeding density of 2×10^5 cells/cm^2 for 24 hr for attachment. After being added into media having concentrations of 0, 5, 10 and 40 μM of Leader 1 for 24 hr, the cells are rinsed with PBS and, then, dropped down with tripsin. The cells are loaded into centrifuge tubes for centrifugal rotation at a speed of 1280 rpm for 3 min to remove supernatant. Residual serum is slowly removed by washing with PBS. Then, centrifugal rotations are processed at a speed of 1280 rpm for 3 min. The cells are added at a density of 2×10^5 cells/cm^2 into culture media, where the media are located at the upper layer and injected with a 200 μl solution containing only 0.1% fetal bovine serum. Another media are located at the lower layer and contain 20% fetal bovine serum. The kit is put in an incubator to be observed after 12 or 24 hr.
(§1) The kit is soaked in methanol and stayed still for 20 min to be dried afterwards. Then, the kit is soaked in Gimsa to be dyed for 20 min. […]

[2] = system: A549 lung cancer cells; test: Transwell migration of A549 cells; details: A549, 5-40 μM for 24 hr, with or without TNF-α induction, 12 or 24 hr; especially 40 μM
Protocol: 24-well transwell kits (Millipore Co.) are used for analyzing lung cancer cell migration.
At first, lung cancer cells A549 are cultured as described in state-of-use 1. After being washed down with tripsin, the cells are replanted in a 12-well plate at a seeding density of 2×10^5 cells/cm^2 for 24 hr for attachment. After being added into media having concentrations of 0, 5, 10 and 40 μM of Leader 1 for 24 hr, the cells are rinsed with PBS and, then, dropped down with tripsin. The cells are loaded into centrifuge tubes for centrifugal rotation at a speed of 1280 rpm for 3 min to remove supernatant. Residual serum is removed by slow-washing with PBS. Then, centrifugal rotations are processed at a speed of 1280 rpm for 3 min. The cells are added into culture media at a density of 2×10^5 cells/cm^2, where the media are located at an upper layer of the kit and injected with a 200 μl solution containing only 0.1% fetal bovine serum. Another media are located at a lower layer of the kit and containing 20% fetal bovine serum (induced or not induced with TNF-α). The kit having the two layers of media is put in an incubator to be observed after 12 or 24 hr.
as §1

[3] = system: A549 lung cancer cells; test: Wound healing of A549 cells; details: A549, 5-40 μM, observed at 0, 12, 24 or 48 hr; especially 40 μM
Protocol: (§2) The present invention selects a human lung cancer cell, A549, for exploring lung cancer cell metastasis. For culturing A549, the A549 cells grown in 75 T flask are replanted in a 10 square-centimeter (cm^2) dish at a seeding density of 2×10^5 cells per square-centimeter (cells/cm^2) to be cultured at 37 Celsius degrees (° C.) in an incubator having 5% carbon dioxide (CO2). The culture medium used is Ham's F12 (which is recommended by Bioresources Collection and Research Center (BCRC), Taiwan, and American Type Culture Center (ATCC)) and is added with extra 10% fetal bovine serum. State-of-Use 2: Preparing Extracts of Solid-State Cultivated Antrodia cinnamomea Mycelium
At first, lung cancer cells A549 are cultured as described in state-of-use 1. After being washed down with tripsin, the cells are replanted in a 12-well plate at a seeding density of […] for 24 hr for attachment. Then, a wound line is made in each well. After floating part of the cells are removed by being slight-washed with PBS, the cells are added to culture media having concentrations of 0, 5, 10, 20 and 40 μM of Leader 1 for observation at time points of 0, 12, 24 or 48 hr to be photographed as records, where a medium dosed with 0 μM of DMSO is used as a control group.

[4] = system: related proteases and proteins that promote metastasis (p-Akt, E-cadherin, MMP-2,9, TIMP-1); test: Western blot of metastasis-related proteases and proteins in lung cancer cells; details: β-actin as control
Protocol: After total proteins of the cell are obtained, an equivalent amount of proteins are added to 8-10% gradient electrophoresis gel wells at a current of 80 V and 300 mA for 240 min for separating the total proteins. The total proteins sorted according to their sizes are blotted on a polyvinylidene difluoride (PVDF) membrane at a condition using a 100 V current for 2 hr. Then, the PVDF membrane is reacted with a blocking buffer for 1 hr. Therein, the blocking buffer contains 10% w/v skim milk powder in a TBS-T buffer, and the TBS-T buffer contains a TBS buffer having 0.1% Tween 20.
Thereafter, the PVDF membrane is immersed in an antibody solution of actin (Cell signaling Co.); an antibody solution of p-Akt or protein kinase B (1:1000, Cell signaling Co.); an antibody solution of E-cadherin (1:1000, Cell signaling Co.); an antibody solution of MMP-2,9 in matrix metalloproteinase (1:1000, Santa Cruz Co.); and an antibody solution of TIMP-1 (1:1000, Cell signaling Co.). […]
Then, the PVDF membrane is immersed in an anti-mouse secondary antibody solution having horseradish peroxidase and an anti-rabbit secondary antibody solution for reaction at a room temperature for 1˜2 hr. […] Then, an enhanced chemiluminescene (ECL) regent is used to detect fluorescence intensity, where β-actin protein is used as a control group of expression for statistical mapping with sigma plot 10.0.

[5] = system: matrix metalloproteinase (MMP-2, MMP-9); test: Gelatin zymography of gelatinase activity in A549 cells; details: A549, 5-40 μM for 24 hr; especially 40 μM
Protocol: Electrophoresis is used to detect hydrolytic enzymes. Gelatin zymography is used to analyze activities of gelatinases (MMP-2, MMP-9) in matrix metalloproteinase (MMP) of lung cancer cells.
(§3) At first, lung cancer cells A549 are cultured as described in state-of-use 1. After being washed down with tripsin, the cells are replanted in a 12-well plate at a seeding density of 2×10^5 cells/cm^2 for 24 hr for attachment. Then, the kit is rinsed with PBS two times. After being added into media having concentrations of 0, 5, 10 and 40 μM of Leader 1 for 24 hr, the cells are added into media having 1% fetal bovine serum for 24 hr for obtaining culture media containing the cells. The kit is put into an Eppendorf centrifuge tube for centrifugal rotation at a 1250 rpm speed for 10 min. Then, the supernatant is taken out to be stored at −20° C.
An equivalent amount of the supernatant is added into 8%-gradient colloidal wells of gel (SDS-PAGE, containing 1 mg/ml gelatin) with a 6-times MMP dye. A running buffer is added and reaction stops after 45 kD of a MMP marker is resolved into the gel with a current of 80 V and 300 mA.
(§4) The gel is taken out for reaction in a zymography renaturing buffer at a 35 rpm speed. The reaction is done for 2 times at a room temperature and it takes 30 min for each time. […]

[6] = system: A549 lung cancer cells; test: MTT survival rate of A549 cells; details: A549, 0~40 μM, 24 hr
Protocol: as §2
At first, A549 cells are cultured as described in state-of-use 1. After being washed with tripsin, the cells are replanted for 24 hr in a dish having 24 wells at a seeding density of 2×10^5 cells/cm^2. In Table 1, Leader 1 having a concentration of 0, 5, 10, or 40 μM is cultured for 24 hr to be applied to A549, where Leader 1 having 0 μM is added with DMSO to be used as a control group. […] Then, the cell membrane and the blue-violet crystals are dissolved with DMSO to acquire light-absorbance rates with a wavelength of 570 nm for forming a statistical diagram by using sigma plot 10.0.

[7] = system: urokinase-type plasminogen activator (uPA); test: Casein-plasminogen zymography of uPA activity in A549 cells; details: A549, 5-40 μM for 24 hr; especially 40 μM
Protocol: Electrophoresis is used for detecting hydrolytic enzymes. The part regarding plasminogen in casein-zymography is used for analyzing activity of urokinase-type plasminogen activator (uPA) of lung cancer cells, where uPA would decompose plasminogen into plasmin.
as §3
An equivalent amount of the supernatant is added into 8%-gradient colloidal wells of gel (containing 15 μl/ml plasminogen and 1 mg/ml gelatin) with a 6-times MMP dye. A running buffer is added and reaction stops after 45 kD of a MMP marker is resolved into the gel with a current of 80 V and 300 mA.
as §4

COc1cc(C)c(OC)c(OC)c1O [Leader 1, 2,3,6-trimethoxy-4-methylphenol]
suppressing invasion of lung cancer cells [1]: shows ability on suppressing invasion of lung cancer cells
suppressing migration of lung cancer cells [2]: shows activity on suppressing migration of lung cancer cells
suppressing wound healing of lung cancer cells [3]: shows its ability on suppressing wound healing of lung cancer cells
suppressing related proteases and proteins that promote metastasis of lung cancer cells [4]: shows ability on suppressing related proteases and proteins that promote metastasis of lung cancer cells
suppressing matrix metalloproteinase (MMP-2, MMP-9) activity of lung cancer cells [5]: shows ability on suppressing matrix metalloproteinase (MMP-2, MMP-9) activity of lung cancer cells
survival rate of lung cancer cells (cytotoxicity) [6]: no cytotoxicity to lung cancer cells
suppressing plasminogen activator of lung cancer cells [7]: shows activity on suppressing plasminogen activator of lung cancer cells
